Two compounds from US20260027096A1, “PHD INHIBITORS” (Oxford University Innovation Limited, priority 2023, published 2026) can be followed below.

The subject of data set [1] is BNIP3 mRNA in human AML cells. The data set can be described thus: qPCR of BNIP3 (BAX, BAK) in human AML cells. Type of data set: cell-based. As to conditions: for BNIP3 mRNA expression: MOLM13, OCI-AML3, MV411 and THP-1 cells; for BNIP3, BAX and BAK transcripts (qPCR): MOLM-13 cells, 50 μM. Here is the method: RNA was isolated using Direct-zol RNA Miniprep kit (Zymo Research, #R2051) and reverse transcribed using High-Capacity cDNA Reverse Transcription Kit (Applied Biosystems). For real-time quantitative PCR (qPCR), 5 ng of cDNA, 5 μL of PowerUp SYBR Green MasterMix (Applied Biosystems) and 2 pmol of primers were used per well of 384-well plate. Reactions were performed in triplicate using C1000 Thermocycler 384well (BioRad). Gene expression was quantified using comparative AA-Ct method and ACTB was used as the housekeeping gene. Data is expressed as log 2 fold change in comparison to control sample and represents results of three independent experiments measured in duplicate.
Given that the primary function of PHD2 is to promote HIF-α degradation, HIF-1α levels were measured following the treatment of AML cells with PHD inhibitors. […] To investigate whether HIF-α mediates the anti-leukaemic effects of PHD inhibition, Meis1/Hoxa9-transformed AML cells lacking both Hif1α and Hif2α and control cells were employed (Vukovic et al., 2015). […] Next, to investigate a molecular mechanism behind the anti-leukaemic effect of PHD inhibition, HIF-dependent transcripts that were dysregulated were interrogated via (68, example 46)-treatment in murine cells.
For orientation: In qPCR the cycle at which signal appears reflects the starting amount.

Data set [2] deals with THP-1 cells in NBSGW recipient mice. In words: THP-1 xenotransplantation in NBSGW mice. Format: in vivo. Particulars: 30 mg/kg i.p. twice daily for 21 days. From the text: (A) 100,000 THP-1 cells were transplanted into NBSGW recipient mice. […] (B-C) Percentage of human CD45+CD33+ and human CD45+CD14+ cells in the BM and spleen, respectively (n=4-5). (D) 100,000 OCI-AML3 cells were transplanted into NBSGW recipient mice. […] (E) Percentage of human CD45+CD33+CD14+ cells in the liver, BM and PB, respectively (n=3-7). (F) 2,000 LSK cells from iMLL-AF9;Control mice were sorted and transplanted into irradiated recipient mice. […] (H) LDA in secondary recipients transplanted with indicated doses of CD45.2+BM cells from primary recipients (n=9-10 per dose). (I) Plot showing Poisson statistical analysis. Circles represent the percentages of negative mice for each cell dose, triangles represent any data values with zero negative responses. Solid lines indicate the best-fit linear model, and dotted lines represent 95% CIs. LSC frequencies were calculated using the ELDA software 121. (J) Steady-state analyses of 8-to 10-week-old C57B16 mice treated with IOX5 or vehicle control 2× daily via i.p. injection for 14 days (n=5-7). (K) PB counts (n=6). (L) Total BM cellularity (n=5-9). (M) Total numbers of HSC, MPP, HPC-1 and HPC-2 populations (n=5-7). Data represent mean±SEM; * p<0.05; ** p<0.01; *** p<0.001; **** p<0.0001.
100,000 THP-1 cells, 100,000 OCI-AM3 cells or 100,000 MV411 cells (for combination experiments) were tail vein injected into non-irradiated 10-to 12-week-old mixed gender NBSGW mice and began drug treatment 14 days after transplantation. […] Mice were culled 5 weeks after transplantation.
Next, it was examined whether IOX (68, example 46)5 has a therapeutic impact on MLL-AF9-independent AML. […] Therefore, IOX5 (68, example 46) compromises both MLL-rearranged and non-MLL AML in vivo.

Data set [3] deals with HIF-2α in MOLM13, OCI-AML3, MV411 and THP-1 cells. In words: Western blot of HIF-2α in human AML cell lines. Format: cell-based. Particulars: 48 hrs. Here is the method:
Equipped with currently available PHD inhibitors and newly generated IOX5 (68, example 46), the impact of pharmacological PHD inhibition on AML cells was assessed. […] Thus, while PHD inhibition consistently stabilises HIF-1α protein across all tested AML cell lines, HIF-2α stabilisation is variable and cell line-specific.
In general terms: A western blot detects proteins with antibodies after separation by electrophoresis.

In a further data set the test system is iMLL-AF9 AML cells. The data set can be described thus: RNA-seq analysis of iMLL-AF9 AML cells. Format: cell-based, mouse. Here is the method:
Total RNA was extracted from 500,000 leukaemic cells using RNeasy Plus Universal Mini Kit (QIAGEN, Cat. No. 73404) following the manufacture's protocol. The RNA integrity number (RIN) was determined by High Sensitivity RNA Screen Tape analysis (Agilent, Cat. No. 5067) and all RIN was >8. High sensitivity Libraries for RNA-seq were prepared from 500 ng of total RNA using the NEBNext® Ultra™ II Directional RNA Library Prep Kit for Illumina® (NEB, Cat. No. E7760) with NEBNext Poly(A) mRNA Magnetic Isolation Module (NEB, Cat. No. E7490) following the manufacture's protocol. Nine cycles of PCR were performed to amplify libraries and the pooled library was sequenced on illumina NextSeq 500 with 85 bp single-end mode at EMBL GeneCore facility.
For analysis of differentially expressed genes, adapters were trimmed with cutadapt (version 1.18) using options: -a […]-m 50, and processed reads were mapped to GRCm38 genome_tran (release 84) with HISAT2 (version 2.2.1 (Nature Methods volume 12, pages 357-360 (2015), https://www.nature.com/nmeth)) using following option: —qc-filter. Mapped reads per gene were counted with htseq-count (HTSeq version 2.0.1 (Bioinformatics, Volume 38, Issue 10, 15 May 2022, Pages 2943-2945)) providing GTF file and differentially expressed genes were analysed using DESeq2 (version 1.30.1). […]

In the case of `O=C(O)CNC(=O)c1c(O)n(C2CCCCC2)c(=O)n(C2CCCCC2)c1=O` [Daprodustat, daprodustat, reference compound], in data set [1], the “BNIP3 mRNA expression” value is listed as “strongly induced BNIP3 expression”; the “BNIP3, BAX and BAK transcripts (qPCR)” value was “upregulation of BNIP3 was found, as well as its downstream effectors BAX and BAK”. Further, in data set [2], the leukaemic burden result is “significantly reduced leukaemic burden” and the tolerability of treatment entry is “well tolerated”.
Take `O=C(NCC1CCC(C(F)(F)F)CC1)c1c[nH]c(-n2cccn2)cc1=O` (centres unmarked) [IOX5]: the “HIF-2α protein level (western blot)” value in data set [3] (MOLM13 and MV411 cells) was “did not induce any HIF-2α stabilisation”. Also, the “HIF-2α protein level (western blot)” value in data set [3] (OCI-AML3 and THP-1 cells) was “stabilised HIF-2α protein levels”. In addition, in the data set on iMLL-AF9 AML cells (50 μM vs control), the “gene set enrichment analysis (GSEA) of deregulated genes” value was “significant up-regulation of hypoxia signature, HIF-1 signalling, and activation of HIF-inducible pathways”. The BNIP3 transcript expression result in the data set on iMLL-AF9 AML cells (murine cells) is listed as “significantly upregulated”. For the same compound, in data set [1], the “BNIP3 mRNA expression” value is listed as “strongly induced BNIP3 expression”; the “BNIP3, BAX and BAK transcripts (qPCR)” value was “upregulation of BNIP3 was found, as well as its downstream effectors BAX and BAK”. Further, the leukaemic burden result in data set [2] is reported as “significantly reduced leukaemic burden”.
